{"source": "paper PMC5218480", "about": "(PLoS ONE, 2017)", "system": "MV-4-11 cells", "assay": "Gene expression microarray analysis (Affymetrix PrimeView) and GSEA", "assay_type": "cell-based, human", "parameters": "RFU PODN (11730768_x_at) / Fold change /veh PODN (11730768_x_at) / RFU LINC00158 (11744669_a_at) / Fold change /veh LINC00158 (11744669_a_at) / RFU DUSP10 (11751237_a_at) / Fold change /veh DUSP10 (11751237_a_at) / RFU ID3 (11757404_x_at) / Fold change /veh ID3 (11757404_x_at) / RFU PLEKHG5 (11737974_s_at) / Fold change /veh PLEKHG5 (11737974_s_at) / RFU LRRC4B (11730491_at) / Fold change /veh LRRC4B (11730491_at) / RFU GIMAP4 (11747438_a_at) / Fold change /veh GIMAP4 (11747438_a_at) / RFU KRT8 (11758183_x_at) / Fold change /veh KRT8 (11758183_x_at) / RFU CNN1 (11734310_a_at) / Fold change /veh CNN1 (11734310_a_at) / RFU VPS37D (11726825_at) / Fold change /veh VPS37D (11726825_at) / RFU C10orf10 (11716522_x_at) / Fold change /veh C10orf10 (11716522_x_at) / RFU KIR2DL2 /// KIR2DL4 /// KIR2DL5A /// KIR2DL5B /// KIR2DS1 /// KIR2DS2 /// KIR2DS3 /// KIR2DS4 /// KIR3DL3 /// KIR3DL3 /// KIR3DS1 (11738374_at) / Fold change /veh KIR2DL2 /// KIR2DL4 /// KIR2DL5A /// KIR2DL5B /// KIR2DS1 /// KIR2DS2 /// KIR2DS3 /// KIR2DS4 /// KIR3DL3 /// KIR3DL3 /// KIR3DS1 (11738374_at) / RFU C1QL1 (11718748_at) / Fold change /veh C1QL1 (11718748_at) / RFU TMPRSS4 (11747572_a_at) / Fold change /veh TMPRSS4 (11747572_a_at) / RFU HAMP (11756126_x_at) / Fold change /veh HAMP (11756126_x_at) / RFU RNFT2 (11725882_a_at) / Fold change /veh RNFT2 (11725882_a_at) / RFU NR4A2 (11747474_a_at) / Fold change /veh NR4A2 (11747474_a_at) / RFU ABCC12 (11746883_a_at) / Fold change /veh ABCC12 (11746883_a_at) / RFU TMEM136 (11760407_x_at) / Fold change /veh TMEM136 (11760407_x_at) / RFU CLDN22 /// WWC2 (11732394_at) / Fold change /veh CLDN22 /// WWC2 (11732394_at) / RFU HLA-DPB1 (11760878_x_at) / Fold change /veh HLA-DPB1 (11760878_x_at) / RFU SPINT1 (11716480_a_at) / Fold change /veh SPINT1 (11716480_a_at) / RFU GAP43 (11754022_s_at) / Fold change /veh GAP43 (11754022_s_at) / RFU A4GNT (11735810_at) / Fold change /veh A4GNT (11735810_at) / RFU PRB3 (11715151_x_at) / Fold change /veh PRB3 (11715151_x_at) / RFU TUBB4B (11761932_at) / Fold change /veh TUBB4B (11761932_at) / RFU CAPN14 (11732068_a_at) / Fold change /veh CAPN14 (11732068_a_at) / RFU TMCC2 (11721928_a_at) / Fold change /veh TMCC2 (11721928_a_at) / RFU IRGQ (11745062_a_at) / Fold change /veh IRGQ (11745062_a_at) / RFU FAM174B (11720279_a_at) / Fold change /veh FAM174B (11720279_a_at) / RFU TMPRSS4 (11748680_a_at) / Fold change /veh TMPRSS4 (11748680_a_at) / RFU FAM212B (11763350_a_at) / Fold change /veh FAM212B (11763350_a_at) / RFU PLEKHG5 (11743358_a_at) / Fold change /veh PLEKHG5 (11743358_a_at) / RFU ZSCAN30 (11745921_a_at) / Fold change /veh ZSCAN30 (11745921_a_at) / RFU CMKLR1 (11741424_a_at) / Fold change /veh CMKLR1 (11741424_a_at) / RFU LOC101060620 /// MAPK8IP1 (11723275_at) / Fold change /veh LOC101060620 /// MAPK8IP1 (11723275_at) / RFU SPTSSB (11747773_x_at) / Fold change /veh SPTSSB (11747773_x_at) / RFU PRSS12 (11739890_at) / Fold change /veh PRSS12 (11739890_at) / RFU BIN1 (11741810_x_at) / Fold change /veh BIN1 (11741810_x_at) / RFU WNT11 (11732464_a_at) / Fold change /veh WNT11 (11732464_a_at) / RFU C10orf10 (11716521_a_at) / Fold change /veh C10orf10 (11716521_a_at) / RFU C5orf56 (11738089_at) / Fold change /veh C5orf56 (11738089_at) / RFU CYB561 (11721691_x_at) / Fold change /veh CYB561 (11721691_x_at) / RFU ANKRD19P (11752326_a_at) / Fold change /veh ANKRD19P (11752326_a_at) / RFU OR2T12 /// OR2T33 /// OR2T8 (11738714_s_at) / Fold change /veh OR2T12 /// OR2T33 /// OR2T8 (11738714_s_at) / RFU VCAN (11748164_a_at) / Fold change /veh VCAN (11748164_a_at) / RFU JSRP1 (11732532_at) / Fold change /veh JSRP1 (11732532_at) / RFU KRTAP10-11 (11738290_x_at) / Fold change /veh KRTAP10-11 (11738290_x_at) / RFU MYO3A (11730013_a_at) / Fold change /veh MYO3A (11730013_a_at) / RFU EBF3 (11725865_a_at) / Fold change /veh EBF3 (11725865_a_at) / RFU CAMK2N1 (11719241_x_at) / Fold change /veh CAMK2N1 (11719241_x_at) / RFU C5orf56 (11738088_a_at) / Fold change /veh C5orf56 (11738088_a_at) / RFU OLFML3 (11715873_a_at) / Fold change /veh OLFML3 (11715873_a_at) / RFU LOC100653217 /// NTM (11731650_a_at) / Fold change /veh LOC100653217 /// NTM (11731650_a_at) / RFU MAPK11 (11762145_a_at) / Fold change /veh MAPK11 (11762145_a_at) / RFU FIZ1 (11724087_x_at) / Fold change /veh FIZ1 (11724087_x_at) / RFU OASL (11726364_x_at) / Fold change /veh OASL (11726364_x_at) / RFU SOX15 (11748057_x_at) / Fold change /veh SOX15 (11748057_x_at) / RFU CD79A (11719716_a_at) / Fold change /veh CD79A (11719716_a_at) / RFU HIST1H1D (11736915_at) / Fold change /veh HIST1H1D (11736915_at) / RFU CASKIN2 (11723855_a_at) / Fold change /veh CASKIN2 (11723855_a_at) / RFU LOC730098 (11760151_x_at) / Fold change /veh LOC730098 (11760151_x_at) / RFU OR4N2 (11742367_at) / Fold change /veh OR4N2 (11742367_at) / RFU PRRT2 (11749266_a_at) / Fold change /veh PRRT2 (11749266_a_at) / RFU SNX32 (11753110_a_at) / Fold change /veh SNX32 (11753110_a_at) / RFU CDHR5 (11726645_a_at) / Fold change /veh CDHR5 (11726645_a_at) / RFU RCAN1 (11760418_a_at) / Fold change /veh RCAN1 (11760418_a_at) / RFU FAM167A (11723789_a_at) / Fold change /veh FAM167A (11723789_a_at) / RFU FAM26E (11764081_at) / Fold change /veh FAM26E (11764081_at) / RFU ISYNA1 (11749810_s_at) / Fold change /veh ISYNA1 (11749810_s_at) / RFU ACY1 (11761880_at) / Fold change /veh ACY1 (11761880_at) / RFU 11764098_at / Fold change /veh 11764098_at / RFU SAMD14 (11745864_x_at) / Fold change /veh SAMD14 (11745864_x_at) / RFU NPB (11741838_a_at) / Fold change /veh NPB (11741838_a_at) / RFU TMPRSS6 (11731388_a_at) / Fold change /veh TMPRSS6 (11731388_a_at) / RFU KRTAP10-2 (11738614_at) / Fold change /veh KRTAP10-2 (11738614_at) / RFU ARHGAP8 /// PRR5-ARHGAP8 (11727945_x_at) / Fold change /veh ARHGAP8 /// PRR5-ARHGAP8 (11727945_x_at) / RFU KRTAP5-7 /// NADSYN1 (11734609_at) / Fold change /veh KRTAP5-7 /// NADSYN1 (11734609_at) / RFU RASL12 (11751679_a_at) / Fold change /veh RASL12 (11751679_a_at) / RFU CDKN2B (11736163_a_at) / Fold change /veh CDKN2B (11736163_a_at) / RFU PRF1 (11729649_at) / Fold change /veh PRF1 (11729649_at) / RFU, ZNF638 /// ZNF638-IT1 / Fold change vs veh, ZNF638 /// ZNF638-IT1 / RFU, PANK3 / Fold change vs veh, PANK3 / RFU, SH3YL1 / Fold change vs veh, SH3YL1 / RFU, ZEB2 / Fold change vs veh, ZEB2 / RFU, NRIP1 / Fold change vs veh, NRIP1 / RFU, PTTG1IP / Fold change vs veh, PTTG1IP / RFU, CAPN2 / Fold change vs veh, CAPN2 / RFU, MED14 / Fold change vs veh, MED14 / RFU, SNORA58 / Fold change vs veh, SNORA58 / RFU, C1orf63 / Fold change vs veh, C1orf63 / RFU, LRRFIP1 / Fold change vs veh, LRRFIP1 / RFU, NDUFAF7 / Fold change vs veh, NDUFAF7 / RFU, SLC12A2 / Fold change vs veh, SLC12A2 / RFU, IBTK / Fold change vs veh, IBTK / RFU, ESF1 / Fold change vs veh, ESF1 / Fold change vs veh, TMEM50B / RFU, TAOK1 / Fold change vs veh, TAOK1 / RFU, ACBD3 / Fold change vs veh, ACBD3 / RFU, TMA16 / Fold change vs veh, TMA16 / RFU, RWDD3 / Fold change vs veh, RWDD3 / RFU, BCAT1 / Fold change vs veh, BCAT1 / RFU, EDEM3 / Fold change vs veh, EDEM3 / RFU, TMEM33 / Fold change vs veh, TMEM33 / RFU, WDR75 / Fold change vs veh, WDR75 / RFU, AHCTF1 / Fold change vs veh, AHCTF1 / RFU, TFRC / Fold change vs veh, TFRC / RFU, ZDHHC17 / Fold change vs veh, ZDHHC17 / RFU, NOM1 / Fold change vs veh, NOM1 / RFU, ARL8B / Fold change vs veh, ARL8B / RFU, ZBTB11 / Fold change vs veh, ZBTB11 / RFU, TAMM41 / Fold change vs veh, TAMM41 / RFU, KIAA1704 /// LOC100996395 / Fold change vs veh, KIAA1704 /// LOC100996395 / RFU, ING1 / Fold change vs veh, ING1 / RFU, TRMT61B / Fold change vs veh, TRMT61B / RFU, FUBP3 / Fold change vs veh, FUBP3 / RFU, TP53 / Fold change vs veh, TP53 / RFU, TNKS2 / Fold change vs veh, TNKS2 / RFU, ZFP14 / Fold change vs veh, ZFP14 / RFU, ACTR2 / Fold change vs veh, ACTR2 / RFU, PPP3R1 / Fold change vs veh, PPP3R1 / RFU, PIK3R1 / Fold change vs veh, PIK3R1 / RFU, HNRNPA1 / Fold change vs veh, HNRNPA1 / RFU, RNF170 / Fold change vs veh, RNF170 / RFU, ZNF28 / Fold change vs veh, ZNF28 / RFU, RNGTT / Fold change vs veh, RNGTT / RFU, OGT / Fold change vs veh, OGT / RFU, BRD1 / Fold change vs veh, BRD1 / RFU, MARS / Fold change vs veh, MARS / RFU, ZNF655 / Fold change vs veh, ZNF655 / RFU, FAHD1 / Fold change vs veh, FAHD1 / RFU, BDP1 / Fold change vs veh, BDP1 / RFU, LRRCC1 / Fold change vs veh, LRRCC1 / RFU, ARID1A / Fold change vs veh, ARID1A / RFU, ZNF146 / Fold change vs veh, ZNF146 / RFU, ZNF330 / Fold change vs veh, ZNF330 / RFU, GPN3 / Fold change vs veh, GPN3 / RFU, C9orf123 / Fold change vs veh, C9orf123 / RFU, N4BP2L2 / Fold change vs veh, N4BP2L2 / RFU, ARFIP1 / Fold change vs veh, ARFIP1 / RFU, FAM179B / Fold change vs veh, FAM179B / RFU, BCL10 / Fold change vs veh, BCL10 / RFU, UHRF1BP1L / Fold change vs veh, UHRF1BP1L / RFU, BET1 / Fold change vs veh, BET1 / RFU, CNOT2 / Fold change vs veh, CNOT2 / RFU, ZNF268 / Fold change vs veh, ZNF268 / Fold change vs veh, ZNF507 / RFU, DGCR2 / Fold change vs veh, DGCR2 / RFU, WDSUB1 / Fold change vs veh, WDSUB1 / Fold change vs veh, HSP90B1 /// MIR3652 / RFU, ADSS / Fold change vs veh, ADSS / RFU, GK / Fold change vs veh, GK / RFU, ZNF148 / Fold change vs veh, ZNF148 / RFU, TAF9 / Fold change vs veh, TAF9 / RFU, SLC1A5 / Fold change vs veh, SLC1A5 / RFU, SLMO2 / Fold change vs veh, SLMO2 / RFU, ABCC4 / Fold change vs veh, ABCC4 / RFU, LOC101060439 /// RAP1B / Fold change vs veh, LOC101060439 /// RAP1B / RFU, RFX7 / Fold change vs veh, RFX7 / RFU, GTPBP10 / Fold change vs veh, GTPBP10 / RFU, CNEP1R1 / Fold change vs veh, CNEP1R1 / RFU, BIVM-ERCC5 /// ERCC5 / Fold change vs veh, BIVM-ERCC5 /// ERCC5 / RFU, ILF3 / Fold change vs veh, ILF3 / RFU 11762660_at / Fold change /veh 11762660_at / RFU VCAN (11757783_s_at) / Fold change /veh VCAN (11757783_s_at) / RFU DDX43 (11728927_at) / Fold change /veh DDX43 (11728927_at) / RFU KRT8 (11758188_x_at) / Fold change /veh KRT8 (11758188_x_at) / RFU NKD1 (11759106_at) / Fold change /veh NKD1 (11759106_at) / RFU SRD5A1 (11742802_a_at) / Fold change /veh SRD5A1 (11742802_a_at) / RFU TPSAB1 /// TPSB2 (11721975_s_at) / Fold change /veh TPSAB1 /// TPSB2 (11721975_s_at) / RFU GSTM3 (11746129_a_at) / Fold change /veh GSTM3 (11746129_a_at) / RFU IL23R (11737362_x_at) / Fold change /veh IL23R (11737362_x_at) / RFU TMEM51 (11727254_a_at) / Fold change /veh TMEM51 (11727254_a_at) / RFU PIWIL2 (11732686_x_at) / Fold change /veh PIWIL2 (11732686_x_at) / RFU ORM1 (11744905_x_at) / Fold change /veh ORM1 (11744905_x_at) / RFU CCDC152 (11743942_at) / Fold change /veh CCDC152 (11743942_at) / RFU ECM1 (11717891_a_at) / Fold change /veh ECM1 (11717891_a_at) / RFU IL23R (11748794_a_at) / Fold change /veh IL23R (11748794_a_at) / RFU TNFAIP8L3 (11732012_x_at) / Fold change /veh TNFAIP8L3 (11732012_x_at) / RFU MBOAT4 (11741988_at) / Fold change /veh MBOAT4 (11741988_at) / RFU 11764193_at / Fold change /veh 11764193_at / RFU TMEM53 (11763286_at) / Fold change /veh TMEM53 (11763286_at) / RFU MAGEB2 (11727129_at) / Fold change /veh MAGEB2 (11727129_at) / RFU TMEM200A (11744735_a_at) / Fold change /veh TMEM200A (11744735_a_at) / RFU CCDC152 (11751479_a_at) / Fold change /veh CCDC152 (11751479_a_at) / RFU FAM211A (11726209_a_at) / Fold change /veh FAM211A (11726209_a_at) / RFU RGS16 (11746705_a_at) / Fold change /veh RGS16 (11746705_a_at) / RFU VCAN (11755009_s_at) / Fold change /veh VCAN (11755009_s_at) / RFU RHOB (11743442_s_at) / Fold change /veh RHOB (11743442_s_at) / RFU RGS16 (11720943_a_at) / Fold change /veh RGS16 (11720943_a_at) / RFU RGS16 (11720944_at) / Fold change /veh RGS16 (11720944_at) / RFU, VPS4B / Fold change vs veh, VPS4B / RFU, CREB1 / Fold change vs veh, CREB1 / RFU, DNAJC13 / Fold change vs veh, DNAJC13 / RFU, GNAQ / Fold change vs veh, GNAQ / RFU, CDK5R1 / Fold change vs veh, CDK5R1 / RFU, ZRANB3 / Fold change vs veh, ZRANB3 / RFU, CUL4A / Fold change vs veh, CUL4A / RFU, CCNY / Fold change vs veh, CCNY / RFU, UFL1 / Fold change vs veh, UFL1 / RFU, COG3 / Fold change vs veh, COG3 / RFU, DIAPH2 / Fold change vs veh, DIAPH2 / RFU, SKA2 / Fold change vs veh, SKA2 / RFU, AFF3 / Fold change vs veh, AFF3 / RFU, LMF1 / Fold change vs veh, LMF1 / RFU, IPO11 / Fold change vs veh, IPO11 / RFU, DFFB / Fold change vs veh, DFFB / RFU, FOXP1 / Fold change vs veh, FOXP1 / RFU, CARD8 / Fold change vs veh, CARD8 / RFU, STRN3 / Fold change vs veh, STRN3 / RFU, ADK / Fold change vs veh, ADK / RFU, RASSF2 / Fold change vs veh, RASSF2 / RFU, WIPF1 / Fold change vs veh, WIPF1 / RFU, LARP1B / Fold change vs veh, LARP1B / RFU, RASA1 / Fold change vs veh, RASA1 / RFU, RB1 / Fold change vs veh, RB1 / RFU, PPFIA1 / Fold change vs veh, PPFIA1 / RFU, MAT2A / Fold change vs veh, MAT2A / RFU, CCT5 / Fold change vs veh, CCT5 / RFU, WDR92 / Fold change vs veh, WDR92 / RFU, CUX1 / Fold change vs veh, CUX1 / RFU, TTC7A / Fold change vs veh, TTC7A / RFU, TMEM135 / Fold change vs veh, TMEM135 / RFU, DEPTOR / Fold change vs veh, DEPTOR / RFU, CPM / Fold change vs veh, CPM / RFU, DNAJB6 / Fold change vs veh, DNAJB6 / RFU, CACNA2D3 / Fold change vs veh, CACNA2D3 / RFU, DTX4 / Fold change vs veh, DTX4 / RFU, TFCP2 / Fold change vs veh, TFCP2 / RFU, GMCL1 /// GMCL1P1 / Fold change vs veh, GMCL1 /// GMCL1P1 / RFU, AEBP2 / Fold change vs veh, AEBP2 / RFU, SNHG1 /// SNORD22 /// SNORD25 /// SNORD26 /// SNORD27 /// SNORD28 /// SNORD29 /// SNORD31 / Fold change vs veh, SNHG1 /// SNORD22 /// SNORD25 /// SNORD26 /// SNORD27 /// SNORD28 /// SNORD29 /// SNORD31 / Fold change (Aza/veh), C12orf56 (ProbeSet 11735607_a_at) / Fold change (ACY-1035/veh), C12orf56 (ProbeSet 11735607_a_at) / Fold change (Aza/veh), FGFR1OP (ProbeSet 11751329_s_at) / Fold change (ACY-1035/veh), FGFR1OP (ProbeSet 11751329_s_at) / Fold change (Aza/veh), VPS36 (ProbeSet 11739960_a_at) / Fold change (ACY-1035/veh), VPS36 (ProbeSet 11739960_a_at) / RFU SYPL1 (11715823_x_at) / Fold change /veh SYPL1 (11715823_x_at) / RFU IGFBP7 (11715501_s_at) / Fold change /veh IGFBP7 (11715501_s_at) / RFU REEP3 (11722064_at) / Fold change /veh REEP3 (11722064_at) / RFU IGLL1 (11728026_x_at) / Fold change /veh IGLL1 (11728026_x_at): dose or concentration left out as unconfirmed", "conditions": "MV-4-11 cells, 48 hours", "data": [{"smiles": "Nc1ncn([C@@H]2O[C@H](CO)[C@@H](O)[C@H]2O)c(=O)n1", "note": "[azacitidine]", "values": [{"measurement": "Fold change /veh SRD5A1 (11742802_a_at)", "value": 1.21}]}]}
